Results as given in patent US6545170B2, “2-amino-5, 6 heptenoic acid derivatives useful as nitric oxide synthase inhibitors” (Pharmacia Corporation, priority 2000, dated 2003).
Structures can show the parent of a compound that is named as a salt.

Tests used:
[1] = test system: inducible nitric oxide synthase activity (plasma nitrite/nitrate levels); experiment: In vivo assay: LPS-induced increase in plasma nitrite/nitrate; conditions: Rattus norvegicus; rats, endotoxin (LPS) i.p., oral administration, 5 hours post-treatment; read-out: ED50, inhibition of LPS-induced increase in plasma nitrite/nitrate levels
Procedure: Plasma nitrite/nitrate levels can be determined 5 hours post-treatment.

[2] = target: T1, Human inducible NOS (hiNOS) (Homo sapiens, UniProt P35228); experiment: Citrulline assay for nitric oxide synthase, hiNOS; assay type: biochemical; conditions: recombinant enzyme, 30 μM L-arginine, 37° C. 15 minutes
T1 construct: made in house; host or cells: Sf9 insect cells (baculovirus vector)
From the text: (§1) Nitric oxide synthase (NOS) activity can be measured by monitoring the conversion of L-[2,3-^3H]-arginine to L-[2,3-^3H]-citrulline (Bredt and Snyder, Proc. Natl. Acad. Sci. U.S.A., 87, 682-685, 1990 and Moore et al, J. Med. Chem., 39, 669-672, 1996). Human inducible NOS (hiNOS), human endothelial constitutive NOS (hecNOS) and human neuronal constitutive NOS (hncNOS) are each cloned from RNA extracted from human tissue. The cDNA for human inducible NOS (hiNOS) is isolated from a λcDNA library made from RNA extracted from a colon sample from a patient with ulcerative colitis. The cDNA for human endothelial constitutive NOS (hecNOS) is isolated from a λcDNA library made from RNA extracted from human umbilical vein endothelial cells (HUVEC) and the cDNA for human neuronal constitutive NOS (hncNOS) is isolated from a λcDNA library made from RNA extracted from human cerebellum obtained from a cadaver. The recombinant enzymes are expressed in Sf9 insect cells using a baculovirus vector (Rodi et al, in The Biology of Nitric Oxide, Pt. 4: Enzymology. Biochemistry and Immunology; Moncada, S., Feelisch, M., Busse, R., Higgs, E., Eds.; Portland Press Ltd.: London, 1995; pp 447-450). Enzyme activity is isolated from soluble cell extracts and partially purified by DEAE-Sepharose chromatography. To measure NOS activity, 10 μL of enzyme is added to 40 μL of 50 mM Tris (pH 7.6) in the presence or absence of test compounds and the reaction initiated by the addition of 50 μL of a reaction mixture containing 50 mM Tris (pH 7.6), 2.0 mg/mL bovine serum albumin, 2.0 mM DTT, 4.0 mM CaCl2, 20 μM FAD, 100 μM tetrahydrobiopterin, 0.4 mM NADPH and 60 μM L-arginine containing 0.9 μCi of L-[2,3-^3H]-arginine. The final concentration of L-arginine in the assay is 30 μM. For hecNOS or hncNOS, calmodulin is included at a final concentration of 40-100 nM. […] After mixing the resin is allowed to settle and L-[2,3-^3H]-Citrulline formation is determined by counting aliquots of the supernatant with a liquid scintillation counter. […]

[3] = target: T2, human endothelial constitutive NOS (hecNOS) (Homo sapiens, UniProt P29474); experiment: Citrulline assay for nitric oxide synthase, hecNOS; assay type: biochemical; conditions: recombinant enzyme, 30 μM L-arginine, calmodulin 40-100 nM
T2 construct: made in house; host or cells: Sf9 insect cells (baculovirus vector)
From the text: as §1

[4] = target: T3, human neuronal constitutive NOS (hncNOS) (Homo sapiens, UniProt P29475); experiment: Citrulline assay for nitric oxide synthase, hncNOS; assay type: biochemical; conditions: recombinant enzyme, 30 μM L-arginine, calmodulin 40-100 nM
T3 construct: made in house; host or cells: Sf9 insect cells (baculovirus vector)
From the text: as §1

IC50 [2] | IC50 [3] | IC50 [4] | Structure (SMILES) | ED50 [1]
 |  |  | CC(=N)NC/C(C)=C\CC[C@H](N)C(=O)O [Example 1, (2S,5Z)-2-amino-6-methyl-7-[(1-iminoethyl)amino]-5-heptenoic acid, dihydrochloride] | < 0.1 mg/kg
172 µM | 1490 µM | 523 µM | CC(=N)NC/C(C)=C/CC[C@H](N)C(=O)O [Example 2, (2S,5E)-2-amino-6-methyl-7-[(1-iminoethyl)amino]-5-heptenoic acid, dihydrochloride] | 
0.9 µM | 89 µM | 8 µM | CC(=N)NC/C=C\CC[C@H](N)C(=O)O [Example 6, (2S,5Z)-2-amino-7-[(1-iminoethyl)amino]-5-heptenoic acid, dihydrochloride] | 
20 µM | 418 µM | 150 µM | CC(=N)NC/C=C/CC[C@H](N)C(=O)O [Example 8, (2S,5E)-2-amino-7-[(1-iminoethyl)amino]-5-heptenoic acid, dihydrochloride] | 
